Read-outs that look alike come from different tables or passages of the source. Blank lines part the entries; values can stand above or below the compound they belong to.
Columns and labels:
[1] = pH of 5 weight percent aqueous salt solution; format: physicochemical; details: 5 g salt per 100 g aqueous solution, 25° C
Procedure: For each salt, 5.000 grams of reagent grade material was weighed and added to 95.00 grams of water. […] The instrument was allowed to equilibrate for three minutes between each sample, and the electrodes were rinsed with carbonate-free deionized water. Manual temperature control was set at 25° C.

effects of alcohol [2] = assay: Efficacy in altering the effects of alcohol administered to mice; format: in vivo; details: for comparative effect on mice of ammonium thiosulfate and ammonium sulfate: series of tests in mice
Procedure: Tests of some of the compounds encompassed within the scope of this invention were carried out with mice to determine efficacy in altering the effects of alcohol administered to the test animals.

humans [3] = assay: Toxicity in humans, repeated administration of capsules; details: up to 20 capsules per day (1 gram/capsule) for 10 days
mice [4] = assay: Acute, subacute and chronic toxicity in mice, gastric catheter
rats [5] = assay: Acute, subacute and chronic toxicity in rats, gastric catheter
[6] = tested on: effect of alcohol on a human brain; details: publication DOT HS-801 208 (1974); cited from earlier work
[7] = tested on: ethanol-induced neurological deficit; details: for Fraction Protected / Percent (protected): 0.6 ml/mouse
Procedure: They were deprived of food, but not water, for a period of five hours preceding the test. […] Ten minutes later the animals were tested for neurological deficit or its absence in the usual manner as described in Example 1. A separate group of fasted by non-pretreated mice served as ethanol controls.

[8] = tested on: manifestations of the effects of alcohol; details: 1 or 2 capsules of 1 gram after 1 or 2 alcoholic drinks; in some cases
Text: Throughout the specification and claims reference to an alcoholic drink means reference to an aqueous mixture of ethanol containing about 15-25 grams of ethanol per drink.

[9] = tested on: ethanol-induced neurological deficit
Procedure: (§1) Neurological deficit was recorded if the animal was unable to remain on the rod for at least 10 seconds.

[10] = tested on: ethanol-induced neurological deficit; details: for Fall from rod in 10 sec. (individual mouse): 0.6 ml of 10% solution oral, 30 min before 0.5 ml 30% ethanol oral; for No. Protected/No. Treated: 0.6 ml/mouse of 10% solution oral, ethanol 0.5 ml/mouse; for effectiveness as inhibitors of ethanol-induced neurological deficit: at the dose used (0.6 ml/mouse of 10% solution)
Procedure: as §1
Each composition was prepared freshly as a 10% aqueous solution from the crystalline preparation. A dose of 0.6 ml/mouse was administered orally to 10 mice for each compound. […] A group of 10 untreated mice were used as controls.

mice [11] = details: mouse, in vivo
rats [12] = details: rat, in vivo
humans [13] = details: in vivo
effects of alcohol [14] = assay: Efficacy in altering the effects of alcohol in humans; details: compared with ammonium sulfate
neurological deficit [15] = tested on: neurological deficit
Procedure: Ten minutes later the animals were placed, individually, on a rotored, rotating at 6 rpm. […] Absence of neurological deficit was similarly recorded (+) if the animal had sufficient coordination and muscular power to remain on the rotating rod for 10 seconds or more.

neurological deficit [16] = details: i.p., fasted mice; 0.12-0.19 at 95% confidence limit
Procedure: Further, and in order to avoid physio-chemical problems that might, albeit remotely, arise if ethanol is administered orally, applicant also determined the intraperitoneal ED50 of ethanol in fasted mice.

[17] = ethanol 0.50 ml per mouse, ammonium thiosulfate pretreated
[18] = ethanol 0.63 ml per mouse, ammonium thiosulfate pretreated
[19] = ethanol 0.75 ml per mouse, ammonium thiosulfate pretreated
[20] = ethanol 0.87 ml per mouse, ammonium thiosulfate pretreated
[21] = ethanol 1.00 ml per mouse, ammonium thiosulfate pretreated
[22] = ethanol 0.05 ml per mouse, non-pretreated
[23] = ethanol 0.10 ml per mouse, non-pretreated
[24] = ethanol 0.15 ml per mouse, non-pretreated
[25] = ethanol 0.20 ml per mouse, non-pretreated
[26] = ethanol 0.30 ml per mouse, non-pretreated
[27] = ethanol 0.50 ml per mouse, non-pretreated

Compound: CC(=O)O [Ammonium acetate, ammonium acetate]
pH of 5 Weight Percent Solution [1]: 6.790
efficacy in altering the effects of alcohol in mice (effects of alcohol [2]; mice): Good results
clinical or analytic noxious effects (humans [3]): no clinical or analytic noxious effects
acute, subacute and chronic toxicity (mice [4]): low toxicity
acute, subacute and chronic toxicity (rats [5]): low toxicity

Compound: Cl.N [Ammonium chloride, ammonium chloride, reference compound]
pH of 5 Weight Percent Solution [1]: 4.761
amethystic effect [6]: does not appear to act as an amethystic agent

pH of 5 Weight Percent Solution [1]: 5.335
Compound: N.NS(=O)(=O)O [Ammonium sulfamate, ammonium sulfamate]

Compound: N.N.O=S(O)(O)=S [Ammonium thiosulfate, ammonium thiosulfate]
pH of 5 Weight Percent Solution [1]: 5.966
percent of pure ammonium thiosulfate required to protect 50% of the mice ([7]; 0.6 ml/mouse oral as basic dose): 3.6 (2.63-4.93%)
Fraction Protected ([7]; 1.25% ammonium thiosulfate): 0/10
Percent (protected) ([7]; 1.25% ammonium thiosulfate): 0%
Fall from rod in 10 sec. (individual mouse) ([7]; 1.25% ammonium thiosulfate, 0.6 ml/mouse oral, 30% ethanol 0.5 ml/mouse): +
Fraction Protected ([7]; 2.5% ammonium thiosulfate): 3/10
Percent (protected) ([7]; 2.5% ammonium thiosulfate): 30%
Fraction Protected ([7]; 5.0% ammonium thiosulfate): 7/10
Percent (protected) ([7]; 5.0% ammonium thiosulfate): 70%
Fraction Protected ([7]; 7.5% ammonium thiosulfate): 8/10
Percent (protected) ([7]; 7.5% ammonium thiosulfate): 80%
Fraction Protected ([7]; 10.0% ammonium thiosulfate): 8/10
Percent (protected) ([7]; 10.0% ammonium thiosulfate): 80%
additional drinks consumed without typical manifestations of the effects of alcohol [8]: up to 8 additional drinks
comparative effect on mice of ammonium thiosulfate and ammonium sulfate (effects of alcohol [2]): approximately equally effective
ED50 of 30% ethanol in pretreated mice ([9]; 30% (v/v) ethanol oral, ammonium thiosulfate pretreated): 0.76 ml/mouse
oral ED50 of ethanol in ammonium thiosulfate pretreated animals ([9]; 30% (v/v) ethanol, 95% limits 0.65-0.90 ml): 0.76 mL
increase in ethanol required to induce neurological deficit following pretreatment ([9]; ammonium thiosulfate pretreated vs non-pretreated mice): nearly five times
Fraction Falling From Rod in 10 sec. [9, 17]: 1/10
Percent Falling [9, 17]: 10%
Fall from rod in 10 sec. (individual mouse) ([9]; ethanol 0.5 ml, 0.6 ml of 10% ammonium thiosulfate solution oral, 30 min before): - and +
Fraction Falling From Rod in 10 sec. [9, 18]: 2/10
Percent Falling [9, 18]: 20%
Fall from rod in 10 sec. (individual mouse) ([9]; ethanol 0.63 ml, 0.6 ml of 10% ammonium thiosulfate solution oral, 30 min before): - and +
Fraction Falling From Rod in 10 sec. [9, 19]: 4/10
Percent Falling [9, 19]: 40%
Fall from rod in 10 sec. (individual mouse) ([9]; ethanol 0.75 ml, 0.6 ml of 10% ammonium thiosulfate solution oral, 30 min before): + and ° and -
Fraction Falling From Rod in 10 sec. [9, 20]: 7/10
Percent Falling [9, 20]: 70%
Fall from rod in 10 sec. (individual mouse) ([9]; ethanol 0.87 ml, 0.6 ml of 10% ammonium thiosulfate solution oral, 30 min before): + and -
Fraction Falling From Rod in 10 sec. [9, 21]: 10/10
Percent Falling [9, 21]: 100%
Fall from rod in 10 sec. (individual mouse) ([9]; ethanol 1.00 ml, ammonium thiosulfate solution dose printed as 0.0 ml): +
Fall from rod in 10 sec. (individual mouse) [10]: - and +
No. Protected/No. Treated [10]: 8/10
effectiveness as inhibitors of ethanol-induced neurological deficit [10]: highly effective
relative potency of ammonium thiosulfate and ammonium sulfate ([10]; single test): essentially equipotent
acute, subacute and chronic toxicity (mice [11]): low toxicity
acute, subacute and chronic toxicity (rats [12]): low toxicity
clinical or analytic noxious effects (humans [13]): no clinical or analytic noxious effects
expected effect in altering the effects of alcohol ingestion in humans (effects of alcohol [14]): substantially greater

Compound: CCO [Ethanol, ethanol]
ED50 (95% Limit) (neurological deficit [15]; 30% (v/v) ethanol oral, non-pretreated, 95% limit 0.13-0.22): 0.17 mL
oral ED50 of 30% ethanol for neurological deficit, non-pretreated mice (neurological deficit [15]; 30% (v/v) ethanol, 95% fiducial limits 0.13 to 0.22 ml/mouse): 0.17 ml/mouse
Fall from rod in 10 sec. (individual mouse) (neurological deficit [15]; ethanol 0.05 ml oral, non-pretreated): -
Fraction Falling From Rod in 10 sec. (neurological deficit [15]; [22]): 0/5
Percent Falling (neurological deficit [15]; [22]): 0%
Fraction Falling From Rod in 10 sec. (neurological deficit [15]; [23]): 2/10
Percent Falling (neurological deficit [15]; [23]): 20%
Fraction Falling From Rod in 10 sec. (neurological deficit [15]; [24]): 4/10
Percent Falling (neurological deficit [15]; [24]): 40%
Fraction Falling From Rod in 10 sec. (neurological deficit [15]; [25]): 7/10
Percent Falling (neurological deficit [15]; [25]): 70%
Fraction Falling From Rod in 10 sec. (neurological deficit [15]; [26]): 4/5
Percent Falling (neurological deficit [15]; [26]): 80%
Fall from rod in 10 sec. (individual mouse) (neurological deficit [15]; ethanol 0.5 ml oral, non-pretreated): +
Fraction Falling From Rod in 10 sec. (neurological deficit [15]; [27]): 10/10
Percent Falling (neurological deficit [15]; [27]): 100%
intraperitoneal ED50 of 30% ethanol (neurological deficit [16]): 0.15 ml/mouse

Compound: N[C@@H](Cc1ccc(O)c(O)c1)C(=O)O [L-dopa]
amethystic effect [6]: most effective amethystic agent

Compound: ammonium sulfate
pH of 5 Weight Percent Solution [1]: 5.263
comparative effect on mice of ammonium thiosulfate and ammonium sulfate (effects of alcohol [2]): approximately equally effective
Fall from rod in 10 sec. (individual mouse) [10]: - and +
No. Protected/No. Treated [10]: 7/10
effectiveness as inhibitors of ethanol-induced neurological deficit [10]: highly effective
clinical or analytic noxious effects (humans [3]): no clinical or analytic noxious effects

From US4346082A, “Method of employing therapeutic composition comprising ammonium or substituted ammonium compounds for treatment of alcoholism” (The Vinoxen Company, priority 1981, dated 1982)
